{
  "source": "patent US20050163773A1",
  "about": "“Methods and pharmaceutical compositions for dopaminergic modulation of t-cell adhesion and activity” (priority 2001, published 2005)",
  "key": {"[1]": {"test_system": "Bomapin (protease inhibitor 10, PI 10)", "assay": "RT-PCR analysis of Bomapin mRNA in peripheral T-cells", "assay_type": "cell-based, human", "conditions": "DPAT 10 nM; not shown"}, "normal human T-cells [2]": {"test_system": "normal human T-cells", "assay": "Proliferation of resting normal human T-cells (CyQuant)", "assay_type": "cell-based", "conditions": "48 hours", "experimental": "FIGS. 18A-C depict the proliferation of resting normal human and cultured Jurkat T-cells induced by physiological concentrations of DPAT. […] Numbers of T-cells were evaluated using the CyQuant cell proliferation assay kit (Molecular Probes), according to the manufacturer instructions. FIG. 18A represents a calibration of the CyQuant cell kit, showing the linear relationship between the fluorescent intensity and untreated human T-cell number. Note the similar maximal enhancement of T-cell proliferation with 10^−10M DPAT in purified normal human (18B) and cultured Jurkat T-cells (FIG. 18C)."}, "normal human T-cells [3]": {"test_system": "normal human T-cells", "assay": "T-cell adhesion assay (adhesion of human T-cells to fibronectin)", "protocol": "T-cell adhesion assay: In the majority of the experiments, adhesion of purified normal human T-cells to fibronectin was assayed with radioactively labeled T-cells as follows: normal human T-cells, purified from a fresh blood sample, were labeled with Na2[^51CrO4], washed, and resuspended in adhesion medium (RPMI-1640 supplemented with 2% BSA, 1 mM Ca^++, 1 mM Mg^++, 1% sodium pyruvate, 1% glucose, and 1% HEPES buffer). The cells were then pre-treated (30 min., 37° C.) with DPAT, and added to fibronectin coated (1 μg/well; Sigma Chemicals, St. Louis, Mo.) microtiter flat-bottomed 96 well plates (1×10^5 cells/100 μl/well). The plates were placed in a humidified incubator (37° C., 30 min., 10% CO2), and than washed thoroughly several times with PBS, to remove non-adherent T-cells. The adherent T-cells were lysed with 1% Tween 20 in 1N NaOH, and the radioactivity in the resulting supernatants was determined in a γ-counter. For each experimental group, results were expressed as the mean CPM±SD of bound T-cells from quadruplicate wells. DPAT-treated T-cell adhesion to BSA-(rather than fibronectin) coated wells, and untreated T-cell adhesion to fibronectin coated wells, were the standard negative controls.\nNon-radioactive T-cell adhesion assays: Alternatively, T-cell adhesion assays were performed with non-radioactively labeled cells, differing from the above protocol only in the final detection steps which were performed as follows: After the final washing of the adhesion plates and removal of the non adherent cells, the microtiter wells were supplemented with lysis and substrate solution (60 μl/well of: 0.5% Triton X-100 in water mixed with an equal volume of 7.5 mM p-nitrophenol-N-acetyl-β-D-glucosaminide, (Sigma Chemicals, St. Louis, Mo.) in 0.1M citrate buffer pH=5.0). The plates were then incubated (˜18hr) in a CO2-free 37° C. incubator, supplemented with stop solution (90 μl/well of 50 mM glycine, (Sigma Chemicals, St. Louis, Mo.) pH=10.4 containing 5 mM EDTA), and the optical density was measured at 405 nm in a standard Elisa reader."}, "normal human T-cells [4]": {"test_system": "normal human T-cells", "assay": "Membrane potential measurement by flow cytometry, human T-cells", "assay_type": "cell-based", "conditions": "DPAT 10^−8 M", "experimental": "(§1) Membrane potential measurements by flow cytometry: Purified normal human or mouse antigen-specific T-cells were incubated in serum-free medium (RPMI, ˜1×10^6/ml, 1 hr, 37° C., 10% CO2 humidified incubator) to assure steady state conditions. The cells were then washed, resuspended in normal RPMI, distributed into individual tubes (˜1×10^6/tube), added with 300 nM di-BA-C4(3) oxanol dye (Molecular Probes, Inc., Eugene, Oreg., USA), and 5-15 minutes later added with DPAT (10^−8 M). Alternatively, the human T-cells were resuspended either in normal RPMI, or in rich K^+ RPMI solutions, incubated for 30 min (37° C., 10% CO2), and loaded with 300 nM di-BA-C4(3) oxanol dye. The cell fluorescence was analyzed on the FACSORT at 488 nm."}, "[5]": {"test_system": "resting human peripheral T-cells", "assay": "Gene expression, Atlas human cDNA expression array", "assay_type": "cell-based", "conditions": "DPAT 10 nM, 24 hours", "experimental": "Poly A+RNA was extracted from human T-lymphocytes before and after treatment with 10 nM DPAT for 24 hours, using the Atlas Pure Total RNA Labeling System (Clontech Laboratories, Inc. Palo Alto, Calif.) according to manufacturers recommendations. […] Hybridizations to the Atlas Human cDNA Expression Arrays membranes (Catalog No. 1.2 KIII (7850-1) and III (7855-1), Clontech Laboratories) were performed by Clonetech Laboratories, as described in the user manual, and the expression pattern of up and down regulated genes was visualized by autoradiography.\nPoly A+ RNA was prepared from both DPAT- treated and untreated cells and reverse transcribed to ^32P-labeled cDNA. Using an Atlas human cDNA expression array (i.e. a positively charged nylon membrane spotted with 1200 different human cDNAs) for identification of effected genes, the reverse transcribed products were characterized by hybridization to the atlas membranes. The differential pattern of expression between untreated cells and DPAT-treated cells was visualized by autoradiography, and quantified by densitometry. (FIGS. 20A and 20B). […] This member of the ovalbumin family of serine protease inhibitors is expressed at elevated levels in patients with acute myeloid leukemia and chronic myelomonocytic leukemia, inhibits TNF alpha-induced cell death, and has been linked to the regulation of protease activities in early hematopoiesis (Riewald, M et al Blood 1998;91:1256-62 and Schleef R R and Chuang T L J Biol Chem 2000;275:26385-9)."}, "[6]": {"test_system": "SJL/J anti PLP 139-151 T-cells", "assay": "Experimental autoimmune encephalomyelitis (EAE) induced by encephalitogenic T-cells treated ex vivo", "assay_type": "in vivo, mouse"}, "[7]": {"test_system": "mouse antigen-specific (MBP87-99) T-cells", "assay": "Membrane potential measurement by flow cytometry, mouse antigen-specific T-cells", "assay_type": "cell-based", "conditions": "DPAT 10^−8 M; di-BA-C4(3) oxanol dye", "experimental": "as §1"}, "[8]": {"test_system": "oxazalone-sensitized T-cells", "assay": "Passively transferred delayed type hypersensitivity (DTH) with T-cells treated ex vivo", "assay_type": "in vivo, mouse", "experimental": "Lymph nodes were removed from oxazalone-sensitized mice, and the T-cell suspension was exposed ex-vivo to increasing concentrations of DPAT (FIG. 9A, DPAT […]-DPAT 10^−6M) as described for FIG. 8 hereinabove. Control T-cells were incubated with medium only (untreated T-cells). The T-cells were then washed, resuspended in PBS and injected intravenously into naive syngeneic mice. The ears of the recipient mice were than challenged with oxazalone, and the degree of ear swelling was measured by micrometer 24 hr later. DTH is expressed as the mean ±SD of ear swelling in units of 10^−2 mm. […] Oxazalone-sensitized T-cells were incubated ex vivo for one hour with either DPAT (10^−8 M, +DPAT) or U-Mal (10^−7 M, +U-Mal), or both. The T-cells were then washed, resuspended in PBS, injected intravenously into normal recipients, and DTH measured as described hereinabove. […] FIGS. 9A and 9B represent two individual experiments, each experimental group consisting of 8 mice.\nPassively transferred delayed type hypersenisitivity (DTH): Groups of 6-8 BALB/c female mice (The Jackson Laboratory, Bar Harbor, Mass., USA) were sensitized on the abdominal skin with 200 μt of 2% oxazalone dissolved in acetone/olive oil [4:1 vol/vol)] applied topically. Five days later, lymph nodes were removed from the sensitized mice, and a cell suspension prepared. The cells (3-5×10^6/ml in RPMI, no additional supplements) were than added for […] incubation ([…]. 37° C., 10% CO2 humidified incubator) with either DPAT, U-Mal, or both (in the latter combination the antagonist added 5 minutes before the agonist). The cells were than washed, resuspended in PBS, and injected IV (40×10^6 /mouse) into normal BALB/c recipients. Immediately afterwards the recipient mice were […] with 10 μl of 2% oxazalone in acetone/olive oil, applied topically to each side of the ear. A constant area of the ear was measured immediately before challenge and 24 hr after the challenge with a Mitutoyo engineer's micrometer. The individual measuring the ear swelling was unaware of the identity of the mice groups. The DTH reaction is expressed as the mean±SD (for each group) of the increment of ear swelling 24 hours after inoculation of the oxazalone-sensitized T-cells, in units of 10^−2 mm."}, "IL-10 secretion": {"test_system": "IL-10 secretion", "assay": "IL-10 secretion by human peripheral T-cells (sandwich ELISA)", "assay_type": "cell-based", "conditions": "agonist 10^−7 M, 72 hours", "source_text": "The results are expressed as pg/ml IL-10. […] Immunostaining is with intracellular anti-IL-10 FITC conjugated (FL-1) and anti-CD4 PE conjugated (FL-2) antibodies, as described in Materials and Methods hereinbelow.\nThe results are expressed as pg/mi.\n(§2) The results are expressed as pg/ml.\nas §2, §2"}},
  "note": "Values joined by “and” are separate entries in the source; they are usually repeats but may differ in a detail not shown here. Equal entries are not always repeated.",
  "data": [
    {"molecule": "CCCN(CCC)C1CCc2ccc(O)cc2C1", "note": "(stereo not drawn) [DPAT, 7-Hydroxy-DPAT]", "values": [
      {"measurement": "abundance of Bomapin transcripts", "setting": "[1]", "value": "increased abundance of Bomapin transcripts"},
      {"measurement": "DPAT concentration of maximal enhancement of proliferation, normal human T-cells", "setting": "normal human T-cells [2]", "value": "10^−10 M"},
      {"measurement": "proliferation of normal human T-cells relative to untreated cells", "setting": "normal human T-cells [2]; DPAT 10^−8 M to 10^−10 M", "value": "up to 5 times that of untreated cells"},
      {"measurement": "DPAT-treated T-cell adhesion to BSA-coated wells", "setting": "normal human T-cells [3]; DPAT 10 nM, BSA- instead of fibronectin-coated wells (negative control)", "value": "< 6", "unit": "%"},
      {"measurement": "adhesion when T-cells or fibronectin-coated wells were transiently exposed to DPAT", "setting": "normal human T-cells [3]; DPAT 10^−8 M, washed before seeding", "value": "significant adhesion of T-cells to fibronectin was evident only if the T-cells"},
      {"measurement": "optimum concentration for induction of T-cell adhesion to fibronectin", "setting": "normal human T-cells [3]; dose dependence, human T-cells", "value": 10, "unit": "nM"},
      {"measurement": "level of depolarization, comparable extracellular K^+ concentration", "setting": "normal human T-cells [4]", "value": "~20", "unit": "mM"},
      {"measurement": "depolarization of normal human T-cells", "setting": "normal human T-cells [4]; di-BA-C4(3) oxanol dye", "value": "clear depolarization"},
      {"measurement": "shift of membrane potential", "setting": "normal human T-cells [4]; from a resting potential of ˜48 mV", "value": "~6", "unit": "mV"},
      {"measurement": "down-regulation of gene expression", "setting": "[5]", "value": "down-regulated the expression of others"},
      {"measurement": "expression of Lupus LA protein and Cathepsin E precursor", "setting": "[5]", "value": "induced expression of Lupus LA protein and Cathepsin E precursor"},
      {"measurement": "expression of the serine protease inhibitor Bomapin", "setting": "[5]", "value": "induction of expression"},
      {"measurement": "over expression of mRNA (upregulated genes)", "setting": "[5]", "value": "induced the over expression of mRNA encoding for several genes"},
      {"measurement": "severity of EAE in recipient mice", "setting": "[6]; T-cells incubated 1 hour with DPAT 10^−8 M ex vivo, IV into naive SJL/J mice, documented 5-12 days later", "value": "significantly reduced the severity"},
      {"measurement": "percentage of mice developing EAE, individual experiments", "setting": "[6]; mice injected with DPAT-treated T-cells, four independent experiments", "value": "83% and 60% (2×) and 80%"},
      {"measurement": "percentage of mice developing EAE, mean of four experiments", "setting": "[6]; mice injected with DPAT-treated T-cells, p<0.01 vs untreated T-cells", "value": 70, "unit": "%"},
      {"measurement": "depolarization of mouse antigen specific T-cells", "setting": "[7]", "value": "clear depolarization"},
      {"measurement": "DTH (ear swelling) caused by oxazalone-sensitized T-cells", "setting": "[8]; DPAT 10^−8 M ex vivo, 1 hr, ear swelling 24 hr after challenge", "value": "significantly reduced"},
      {"measurement": "DTH suppression at higher and lower concentrations", "setting": "[8]; DPAT concentrations other than 10^−8 M", "value": "either less or not at all effective"},
      {"measurement": "reduction of DTH", "setting": "[8]; DPAT ex vivo, ear swelling 24 hr after challenge", "value": "> 60", "unit": "%"},
      {"measurement": "induction of IL-10 secretion by receptor-specific Dopamine agonists", "setting": "IL-10 secretion", "value": "induced by the D2 and D3"}
    ]}
  ]
}
